Experimental data from patent US20020094998A1, “Methods and compositions for treatment of ocular neovascularization and neural injury” (priority 2000, published 2002).

Legend:
Brown Norway rats = assay: Electroretinography (a-wave) after verteporfin PDT in rats treated i.p. with agent; type: in vivo, rat; conditions: for A Wave Amplitude PDT Eye: ERG 3-4 hours after PDT; for A Wave Amplitude PDT Eye / A Wave Amplitude Control Eye: N 4; for A Wave Amplitude % Control: PDT eye vs control eye, * p ≦ 0.05 vs vehicle; for A Wave Amplitude Control Eye: eye not treated with PDT; for loss in retinal function induced by PDT: rats, i.p. 1 hour before PDT, a-wave amplitudes
Method: Brown Norway rats weighing 200-400 grams were treated intraperitoneally (i.p.) with either brimonidine, AGN 199960, or the saline vehicle. One hour later, the rats were unilaterally treated with PDT and evaluated by electroretinography 3-4 hours later. There were 4 rats in each treatment group.
PDT was conducted as follows: Mydriasis was induced in one eye of each rat with a drop of 0.5% tropicamide. Rats were then anesthetized with isoflurane and placed on a platform in front of a slit lamp coupled to a Coherent diode laser for verteporfin PDT (689 nm). Verteporfin was injected intravenously at a dose of 6 mg/m^2. […] Three to four hours later, the treated animals were again dilated and anesthetized, then electroretinograms (ERGs) were evaluated in each eye.
ERGs are collected non-invasively by measuring mass-cell response arising due to retinal activity proceeding from a light stimulus. The first cells stimulated by a flash light stimulation are the photoreceptors at the outer retinal layer. This response is measured as an a-wave. As the signal is transduced to inner retinal neurons, a b-wave is produced. The a-wave reflects activity in the photoreceptors and the b-wave reflects activity in both photoreceptors and bipolar cells.
Before being subjected to the ERG test, the rats were placed in the dark (dark-adapted) for 15 minutes. Two types of ERG apparatus were used to generate the results below. In the initial brimonidine experiment, each eye was evaluated separately. A Grass photostimulator was placed 10 cm from the recording eye and flashed a single white flash lasting 10 microseconds. A gold corneal ring electrode with a reference electrode attached to the lower eyelid detected retinal responses. For the AGN 199960 experiments, a Ganzfeld dome was used to generate a single flash and sensitive bipolar corneal electrodes were placed on both eyes, thus allowing simultaneous ERGs to be done. A cushioning agent on the cornea (methylcellulose) was used in each case, and the responses were amplified and stored in a computer. The results reported are a-wave amplitudes, which appear to be the ERG parameter most affected in clinical PDT. […] has the following structure: [drawing 3]

retina = conditions: cited from earlier work
[1] = test system: wet age-related macular degeneration patient
Method: A patient presents with “wet” age-related macular degeneration (ARMD) in the foveal region of the right eye, and their condition is found to be suitable for photodynamic therapy (PDT). For one week prior to the date of scheduled treatment, the patient is given a topical dosage of brimonidine twice a day in a standard formulation.
The day of scheduled PDT treatment, the patient is administered 6 mg/M^2 of verteporfin. Fifteen minutes after the start of the infusion, the patient is administered Irradiance of 600 mW/cm^2 and total fluence of 50 Joules/cm^2 from an Argon light laser.
Brimonidine administration is continued every two days throughout the 12 week evaluation period.
Evaluation of neural health is assayed 1 week, 4 weeks, and 12 weeks following treatment by visual inspection of the retina and test of visual acuity.

CNV = conditions: FIG. 1B

O=C1c2ccccc2CCC1Cc1c[nH]c(=S)[nH]1 (centres unmarked) [AGN 960]
A Wave Amplitude PDT Eye (Brown Norway rats; 300 ug/kg i.p. 1 hour prior to PDT, Ganzfeld dome): 212 ± 16 uV | A Wave Amplitude % Control (Brown Norway rats; 300 ug/kg i.p. 1 hour prior to PDT): 101 ± 13* % | A Wave Amplitude Control Eye (Brown Norway rats; 300 ug/kg i.p., Ganzfeld dome): 218 ± 29 uV | loss in retinal function induced by PDT (Brown Norway rats): inhibited

verteporfin [vertporfin]
effect of PDT on vascular outgrowth and associated edema (retina; about 6 mg/m^2, treatment necessary every few months): effective to slow vascular outgrowth and associated edema somewhat | retinal and optic nerve damage from PDT (retina; high doses (12 and 18 mg/m^2)): long term or permanent scarring of the retina, chronic absence of photoreceptor cells, and optic nerve atrophy

Brc1c(NC2=NCCN2)ccc2nccnc12 [Brimonidine]
visual acuity ([1]; 4 and 12 weeks following treatment): no discernable loss of vision | renewed neovascularization ([1]; 12 weeks following PDT treatment): No evidence | optic nerve axon loss ([1]; monitoring period up to 12 weeks): no evidence | Fluorescein angiography leakage in the treated tissue ([1]; one week after PDT and throughout the monitoring period): minimal leakage | visual inspection of the retina (whitening, edema) ([1]; topical twice a day one week before PDT, then every two days, 1 to 12 weeks after PDT): healthy with no whitening | A Wave Amplitude PDT Eye (Brown Norway rats; 1000 ug/kg i.p. 1 hour prior to PDT, Grass photostimulator): 90 ± 15 uV | A Wave Amplitude % Control (Brown Norway rats; 1000 ug/kg i.p. 1 hour prior to PDT): 103 ± 8* % | A Wave Amplitude Control Eye (Brown Norway rats; 1000 ug/kg i.p., Grass photostimulator): 91 ± 21 uV | post PDT decrease in retinal functionality (Brown Norway rats; FIG. 1A, compared to a saline control): inhibits | loss in retinal function induced by PDT (Brown Norway rats): inhibited | area of ablation of CNV following PDT (CNV): does not affect
